Here are results for one compound from patent US20210308077A1, “COMBINATIONS INCLUDING BETA-ADRENORECEPTOR AGONISTS FOR TREATMENT OF PARKINSON`S DISEASE AND MOVEMENT DISORDERS” (The Brigham and Women`s Hospital, Inc., priority 2017, published 2021).

For test [1], the system named is α-synuclein protein and SNCA mRNA. In words: SNCA expression in SNCA-triplication iPSC-derived neuronal progenitor cells. In kind it is cell-based, human. The conditions noted are these: SNCA-triplication NPCs, 20 μM. How it is done:
The derivation and culture of the WIBR-IPS-αSyn^TRPLline has been described previously (27).
To initiate differentiation, iPSC colonies were pretreated for 30-60 min with 5 μM Y-27632, a ROCK inhibitor (Calbiochem). They were single cell-dissociated after 5-10 minute exposure to accutase (StemProAccutase; Life Technologies) and then re-suspended in neural base (NB) medium, which is DMEM/F12 (Gibco/Life Technologies) supplemented with 0.5% N2 and 1% B27 (Life Technologies). […]
Total RNA from flash-frozen mice brain tissue, rodent primary cells, human neuroblastoma cells and iPSC-derived neuronal cells was isolated using TRIzol® (Life Technologies) following the manufacturer's protocol. RNA concentration was measured using NanoDrop spectrophotometer (Thermo Fisher Scientific, Wilmington, De.). […] Quantitative PCR was performed using TaqMan Universal PCR Master Mix (Applied Biosystems) on an ABI 7900HT instrument (Applied Biosystems) as described previously (31). […] Expression values were analyzed using the comparative threshold cycle method (31). […]

In test [2] the test system is SNCA mRNA. In words: SNCA expression in SNCA-triplication iPSC-derived neurons. Format: cell-based, human. The conditions noted are these: SNCA-triplication iPSC-derived neurons cultured for 8 weeks, 20 μM for three days. As to the method: To begin neural differentiation, NPCs were dissociated with accutase and re-plated on matrigel-coated T75 flasks (CytoOne). The next day medium was fully changed to Neural Differentiation (ND) medium, which is NB medium supplemented with recombinant human BDNF and GNDF (both at 10 ng/mL; R&D Systems) and dibutyryl cyclic AMP (500 μM; Sigma), and without FGF-2. Thereafter, media was half-changed every other day. On day 7-9, differentiating neurons were gently dissociated to single cell suspension and then resuspended in pre-chilled Hank's balanced salt solution (HBSS; Gibco/Life Technologies) supplemented with 0.1% bovine serum albumin (Gibco/Life Technologies). After a wash step, cells were plated on 6- or 24-well plates pre-coated with poly-ornithine and laminin (BD Biocoat). […]
Total RNA from flash-frozen mice brain tissue, rodent primary cells, human neuroblastoma cells and iPSC-derived neuronal cells was isolated using TRIzol® (Life Technologies) following the manufacturer's protocol. RNA concentration was measured using NanoDrop spectrophotometer (Thermo Fisher Scientific, Wilmington, De.). […] Quantitative PCR was performed using TaqMan Universal PCR Master Mix (Applied Biosystems) on an ABI 7900HT instrument (Applied Biosystems) as described previously (31). […] Expression values were analyzed using the comparative threshold cycle method (31).

On to `CC(C)(C)NCC(O)c1cc(Cl)c(N)c(Cl)c1` (stereo not drawn) [clenbuterol], for which the “SNCA mRNA expression” value in test [1] (3 days, P<0.005) is reported as “significantly reduced”. The “endogenous α-synuclein protein” value in test [1] (4 days, P<0.05) is reported as “significantly reduced”. In addition, the SNCA expression result in test [2] is listed as “reduced”.
